Values quoted from earlier work in the PKSmart pharmacokinetics tables (Seal et al. 2025).
Where a SMILES comes first, the peptide text is derived from it. Bridges are numbered along the chain shown (N, C = ends). [ ]: non-standard residue; d: D form. ξ: configuration not given here. ξ2Nal = NC(Cc1ccc2ccccc2c1)C(=O)O; ξW = NC(Cc1c[nH]c2ccccc12)C(=O)O; ξThr(3R) = C[C@@H](O)C(N)C(=O)O; ξY = NC(Cc1ccc(O)cc1)C(=O)O; ξK = NCCCCC(N)C(=O)O; ξV = CC(C)C(N)C(=O)O; ξC = NC(CS)C(=O)O

Test: Lombardo, Berellini, Obach 2018, Drug Metab Dispos 46:1466, doi 10.1124/dmd.118.082966
Details: human; for MRT / Vd / clearance / half-life: in vivo, iv; for fraction unbound: plasma

Structure (SMILES)	MRT [h]	Vd [L/kg]	clearance [mL/min/kg]	half-life [h]	fraction unbound
CC(=O)O[C@H]1C[C@@H]2CC[C@@H]3[C@H](CC[C@@]4(C)[C@H]3C[C@H](N3CC[N+](C)(C)CC3)[C@@H]4OC(C)=O)[C@@]2(C)C[C@@H]1N1CC[N+](C)(C)CC1	1.9	0.35	3	1.9	0.98
O=C(c1ccc(OCCN2CCCCC2)cc1)c1c(-c2ccc(O)cc2)sc2cc(O)ccc12	11.6	7.5	–	12.1	0.05
COc1ccc(CCN(C)CCC[C@](C#N)(c2cc(OC)c(OC)c(OC)c2)C(C)C)cc1OC	2.04	1.75	14.3	1.8	0.07
O=C(O)C(CCc1ccccc1)NC1CCCN2CCCC(C(=O)O)N2C1=O (centres undefined)	29.5	3.7	2.1	50.6	–
O=C(O)CCCSCCN1C(=O)CC[C@@H]1/C=C/[C@@H](O)Cc1ccc(F)cc1	0.51	0.48	15.8	0.38	–
CC1=C(C(=O)O)N2C(=O)C(NC(=O)C(N)c3ccc(O)cc3)[C@H]2SC1 (some centres undefined)	1.5	0.23	2.5	1.1	–
COc1ccccc1N1CCN(CCCNc2cc(=O)n(C)c(=O)n2C)CC1	4	0.75	3.1	3.5	–
CCCCCCCCOCCOC(=O)CN(CC(=O)O)c1ccccc1OCCOc1ccccc1N(CC(=O)O)CC(=O)OCCOCCCCCCCC	1.3	1.1	14	3.5	–
CCOC(=O)C1=C(C)NC(C)=C(C(=O)OC)C1c1cccc([N+](=O)[O-])c1 (centres undefined)	4.1	6.1	25	8.2	0.02
CC(=O)NC(CS)C(=O)O (centres undefined)	3	0.55	3.1	5.5	0.17
CCCCCc1cc(O)c2c(c1)OC(C)(C)[C@@H]1CCC(C(=O)O)=C[C@@H]21	18.1	1.28	1.2	17.6	–
O=C(Cn1cnnn1)NC1C(=O)N2C(C(=O)O)=C(CSc3nncs3)CS[C@H]12 (some centres undefined)	–	–	5.37	0.64	–
CCCC[S@](=N)(=O)CCC(N)C(=O)O (some centres undefined)	1.9	0.26	2.28	1.68	–
CCC1=C[C@@H]2CN(C1)Cc1c([nH]c3ccccc13)[C@@](C(=O)OC)(c1cc3c(cc1OC)N(C)[C@H]1[C@@](O)(C(=O)OC)[C@H](OC(C)=O)[C@]4(CC)C=CCN5CC[C@]31[C@@H]54)C2	18	23	20	26	0.87
CN(C)C[C@H](c1ccc(O)cc1)C1(O)CCCCC1	11.8	3.5	4.9	8.4	0.7
CC(C)C[C@H](NC(=O)CNC(=O)c1cc(Cl)ccc1Cl)B(O)O	119	3.61	0.5	97	0.01
C[N+]1(CC2CC2)CC[C@]23c4c5ccc([O-])c4OC2C(=O)CC[C@@]3(O)[C@H]1C5 (some centres undefined)	–	–	–	–	0.87
CC1CNc2c(cccc2S(=O)(=O)NC(CCCNC(=N)N)C(=O)N2CC[C@@H](C)CC2C(=O)O)C1 (some centres undefined)	0.57	0.17	5	0.4	0.46
COC(=O)C1=C(C)NC(C)=C(C(=O)OCCCN2CCC(c3ccccc3)(c3ccccc3)CC2)[C@@H]1c1cccc([N+](=O)[O-])c1	15	8.4	9.3	22	–
COC(=O)C1=C(C)NC(C)=C(C(=O)OC(C)C)C1c1cccc2nonc12 (centres undefined)	1	1.5	26	3.3	0.04
CON=C(C(=O)NC1C(=O)N2C(C(=O)O)=C(C)CS[C@H]12)c1csc(N)n1 (some centres undefined)	2.5	0.28	1.9	2.1	0.78
CC(C)(F)CC(N[C@@H](c1ccc(-c2ccc(S(C)(=O)=O)cc2)cc1)C(F)(F)F)C(=O)NC1(C#N)CC1 (some centres undefined)	147	1.63	0.19	108	–
COc1c2occc2cc2ccc(=O)oc12	0.88	0.61	–	–	0.09

Structure (SMILES)	MRT [h]	Vd [L/kg]	clearance [mL/min/kg]	half-life [h]	fraction unbound
CN(C)N=Nc1nc[nH]c1C(N)=O	7.8	1.2	2.6	6.2	1
C=CCNc1nc(NCC=C)nc(N2CCN(C(c3ccc(F)cc3)c3ccc(F)cc3)CC2)n1	607	35.4	0.97	1340	0.01
C=C1CC[C@@H]2[C@](C)(COC(=O)CCC(=O)O)[C@H](OC(=O)CCC(=O)O)CC[C@@]2(C)[C@@H]1/C=C/C1=CCOC1=O	1	0.13	2	1.9	–
COc1ccc2[n-]c([S@+](O)Cc3ncc(C)c(OC)c3C)nc2c1	0.9	0.2	3.85	0.83	0.03
CC[C@H]1OC(=O)C(C)[C@@H](O[C@H]2C[C@@](C)(OC)[C@@H](O)[C@H](C)O2)[C@H](C)[C@@H](O[C@@H]2O[C@H](C)C[C@H](N(C)C)[C@H]2O)[C@](C)(OC)CC(C)C(=O)C(C)[C@@H](O)[C@]1(C)O (some centres undefined)	3.4	1.5	7.3	2.8	–
Cn1cncc1[C@@](N)(c1ccc(Cl)cc1)c1ccc2c(c1)c(-c1cccc(Cl)c1)cc(=O)n2C	3.07	0.93	5.03	2.52	0.006
C#Cc1cccc(Nc2ncnc3cc(OCCOC)c(OCCOC)cc23)c1	7.55	0.77	1.69	6.5	0.07
CCN(CC)CCNC(=O)c1cc(S(C)(=O)=O)ccc1OC	3.8	1.1	4.7	3.2	–
Cc1ncc([N+](=O)[O-])n1CC(O)CN1CCOCC1 (centres undefined)	7.9	0.75	1.6	6.2	–
C=C(CC(NC(=O)c1ccc(CCc2cnc3nc(N)nc(N)c3n2)cc1)C(=O)O)C(=O)O (centres undefined)	3.78	0.7	3.08	8.2	–
Cc1nnc(SCC2=C(C(=O)O)N3C(=O)C(NC(=O)Cn4cc(Cl)c(=O)c(Cl)c4)[C@H]3SC2)s1 (some centres undefined)	2.3	0.13	0.95	1.91	–
C=CC[N@@+]12CC[C@@]34c5ccccc5N5C=C6[C@H]7C[C@H]8[C@@]9(CC[N@@+]8(CC=C)C/C7=C/CO)c7ccccc7N(C=C([C@@H](C[C@@H]31)/C(=C\CO)C2)[C@H]54)[C@@H]69	4.1	0.32	1.3	3.6	–
O=C1CN=C(c2ccccc2)c2cc([N+](=O)[O-])ccc2N1	33	1.7	0.86	26	–
Nc1nc(Cl)nc2c1ncn2[C@@H]1O[C@H](CO)[C@@H](O)[C@@H]1F	3.8	1.75	7.7	4	–
CCNC(=O)CCC/C=C\C[C@@H]1[C@@H](/C=C\[C@@H](O)CCc2ccccc2)[C@H](O)C[C@@H]1O	–	0.67	25	0.45	0.12
C[C@@H]1C[C@@H]2[C@@H]3CC=C4CC(=O)C=C[C@]4(C)C3=CC[C@]2(C)C1C(=O)CN1CCN(c2cc(N3CCCC3)nc(N3CCCC3)n2)CC1 (some centres undefined)	23.2	9.8	7	49.3	0.006
COc1ccc(CCN(C)CCCN2CCc3cc(OC)c(OC)cc3CC2=O)cc1OC	3.2	1.6	8.4	2.8	–
COc1cc(N)cn[n+]1-c1ccccc1	13	4	5.1	14.1	–
Oc1cc2c(cc1O)[C@H](Cc1cccc3ccccc13)NCC2	0.12	1.09	156	1.58	–
CC(C)C1NC(=O)C(CCCCN)NC(=O)C(Cc2c[nH]c3ccccc23)NC(=O)C(Cc2ccc(O)cc2)NC(=O)C(NC(=O)C(N)Cc2ccc3ccccc3c2)CSSCC(C(=O)NC(C(N)=O)[C@@H](C)O)NC1=O (stereo partly drawn) (H-[ξ2Nal][ξC][ξY][ξW][ξK][ξV][ξC][ξThr(3R)]-NH2; disulfide 2-7)	0.57	0.2	5.7	1.03	–
CCN(CC)CCNC(=O)c1cc(Cl)c(N)cc1OC(C)C(C)=O (centres undefined)	2.68	1.5	9.32	2.7	0.46
O=C1CCc2ccc(OCCCCN3CCN(c4cccc(Cl)c4Cl)CC3)cc2N1	98	4.9	0.83	75	–
CCCOC(C(=O)OC1CCN(C)CC1)(c1ccccc1)c1ccccc1	15.4	2.73	2.94	15.2	0.1

Structure (SMILES)	MRT [h]	Vd [L/kg]	clearance [mL/min/kg]	half-life [h]	fraction unbound
C[C@H]1O[C@@H](O[C@H]2[C@@H](O)C[C@H](O[C@H]3[C@@H](O)C[C@H](O[C@H]4CC[C@@]5(C)[C@H](CC[C@@H]6[C@@H]5C[C@@H](O)[C@]5(C)[C@@H](C7=CC(=O)OC7)CC[C@]65O)C4)O[C@@H]3C)O[C@@H]2C)C[C@H](O)[C@@H]1O	40	4.1	1.7	38	–
CCC(=O)NCC[C@@H]1CCc2ccc3c(c21)CCO3	1.3	1.05	13.1	1.9	0.2
O=C(/C=C/c1ccccc1)NCCO	1.93	0.11	0.99	1.35	–
CN1CC[C@]23CCCC[C@H]2[C@H]1Cc1ccc(O)cc13	12.2	11.5	15.7	13.5	0.6
C[C@H]1CN(c2c(F)cc3c(=O)c(C(=O)O)cn(C4CC4)c3c2OC(F)F)CCN1	7.1	1.1	2.7	5.9	–
COC(=O)C1(OC(=O)c2cncn2[C@H](C)c2ccccc2)CC1	–	–	50.1	0.24	–
CC1(C)S[C@@H]2C(NC(=O)COc3ccccc3)C(=O)N2C1C(=O)O (some centres undefined)	1	0.41	6.8	0.84	–
O=[N+]([O-])OCC(CO[N+](=O)[O-])O[N+](=O)[O-]	–	–	194	–	–
CN1CCN(c2ncc(-c3cc(Cl)cc(Cl)c3Cl)c(N)n2)CC1	12.3	15.3	20.9	11	–
CC[C@@H](C)N(C)C(=O)c1cc2ccccc2c(-c2ccccc2Cl)n1	5.4	1.7	5.9	3.7	–
CCCCN1CCCC1C(=O)Nc1c(C)cc(C)cc1C (centres undefined)	1.51	1.73	19.2	1.58	–
CN(C)CCn1nnnc1SCC1=C(C(=O)O)N2C(=O)C(NC(=O)Cc3csc(N)n3)[C@H]2SC1 (some centres undefined)	0.76	0.26	5.8	0.84	0.5
CN/C(=C\[N+](=O)[O-])NCCSCc1csc(CN(C)C)n1	1.7	1	9.8	1.5	–
CC1(C)O[C@@H]2C[C@H]3[C@@H]4C[C@H](F)C5=CC(=O)C=C[C@@]5(C)[C@H]4[C@@H](O)C[C@]3(C)[C@]2(C(=O)CO)O1	1.89	1.08	9.5	1.68	–
COc1cc(Cc2cnc(N)nc2N)c2cc(Cc3c(C(=O)N(C)C)[nH]c4ccc(Cl)cc34)oc2c1OC	11.3	5.06	7.49	44.5	–
CCOC(=O)C1=C[C@]2(CC)CCCN3CCc4c(n1c1ccccc41)[C@@H]32	5.68	2.08	6.1	4.83	0.02
C=CCN1CCCC1CNC(=O)c1cc2[nH]nnc2cc1OC (centres undefined)	4	1.6	6.6	2.8	–
CCC(=O)O[C@H](CC(=O)[O-])C[N+](C)(C)C	2.15	0.3	2.33	1.28	–
CCn1cc(C(=O)O)c(=O)c2cnc(N3CCNCC3)nc21	5.15	0.88	2.84	3.69	0.7
COc1ccc(C2(C#N)CCC(C(=O)O)CC2)cc1OC1CCCC1 (centres undefined)	8.5	0.23	0.5	7.9	–
NN=c1cc2c(n[nH]1)CCN(C(=O)c1ccccc1)C2	2.7	2.2	13	5.6	–
CC/C=C\C/C=C\C/C=C\C/C=C\C/C=C\C/C=C\CCC(=O)OC(C(=O)O[C@H]1C[C@@]2(O)[C@@H](OC(=O)c3ccccc3)[C@@H]3[C@]4(OC(C)=O)CO[C@@H]4C[C@H](O)[C@@]3(C)C(=O)C(OC(C)=O)=C(C1C)C2(C)C)[C@@H](NC(=O)c1ccccc1)c1ccccc1 (some centres undefined)	45	–	0.025	60	0.0038
